The source of these data is patent US10189854B2, “Substituted pyrimidine compounds” (Grünenthal GmbH, priority 2014, dated 2019).

This assay deals with human PDE4B1 (Homo sapiens (Human), UniProt Q07343). Nature of the assay: cAMP HTRF assay to determine the activity of hPDE4B1. Type of assay: biochemical. To be noted: IC50 inhibition of PDE4B; human recombinant PDE4B1, cAMP HTRF assay. Here is the method: Biological Testing cAMP HTRF® Assay to Determine the Activity of hPDE4B1
The inhibiting effect of the compounds on the enzyme activity of human PDE4B1 was measured by the quantification of 5′-adenosine monophosphate (5′-AMP), which is formed from 3′,5′-cyclic adenosine monophosphate (cAMP). Human recombinant enzyme, expressed in Sf9 cells, and the HTRF (homogeneous time-resolved fluorescence) detection method were used in the assay.
The test compound or water (control) was mixed with the human recombinant PDE4B1 enzyme (4.8 U) in a buffer consisting of 44.4 mM tris-HCl, 5.28 mM MgCl2, 2.64 mM DTT and 0.044% Tween 20 (pH 7.8). After adding the cAMP enzyme substrate (final concentration 40 nM), the mixture was incubated for 30 minutes at room temperature. Then a fluorescence acceptor (Dye2 marked with cAMP), a fluorescence donor (anti-cAMP antibody marked with a europium cryptate) and the non-specific phosphodiesterase inhibitor IBMX (3-isobutyl-1-methylxanthine; final concentration 1 mM) were added. After 60 min the fluorescence transfer, which correlates with the amount of remaining cAMP, was measured with a microplate reader (Rubystar, BMG) at λex=337 nm, λem=620 nm and λem=665 nm. The enzyme activity was calculated from the quotient formed from the measured signal at 665 nm and that at 620 nm. The result was expressed as the percentage inhibition of enzyme activity of the control (without PDE4 inhibitor). The enzyme was omitted for measurement of the basal control.
[N. Saldou et al., Comparison of recombinant human PDE4 isoforms: interaction with substrate and inhibitors, Cell. Signal. Vol. 10, No. 6, 427-440, 1998]. Several compounds according to the invention are tested in the above-described assay.
(In general: TR-FRET usually uses a lanthanide donor and a delayed reading to cut background.)

SMILES strings stand for the structures. Where only a bound is given, the exact number is not on record here.

Chain of human PDE4B1 (Q07343 whole entry): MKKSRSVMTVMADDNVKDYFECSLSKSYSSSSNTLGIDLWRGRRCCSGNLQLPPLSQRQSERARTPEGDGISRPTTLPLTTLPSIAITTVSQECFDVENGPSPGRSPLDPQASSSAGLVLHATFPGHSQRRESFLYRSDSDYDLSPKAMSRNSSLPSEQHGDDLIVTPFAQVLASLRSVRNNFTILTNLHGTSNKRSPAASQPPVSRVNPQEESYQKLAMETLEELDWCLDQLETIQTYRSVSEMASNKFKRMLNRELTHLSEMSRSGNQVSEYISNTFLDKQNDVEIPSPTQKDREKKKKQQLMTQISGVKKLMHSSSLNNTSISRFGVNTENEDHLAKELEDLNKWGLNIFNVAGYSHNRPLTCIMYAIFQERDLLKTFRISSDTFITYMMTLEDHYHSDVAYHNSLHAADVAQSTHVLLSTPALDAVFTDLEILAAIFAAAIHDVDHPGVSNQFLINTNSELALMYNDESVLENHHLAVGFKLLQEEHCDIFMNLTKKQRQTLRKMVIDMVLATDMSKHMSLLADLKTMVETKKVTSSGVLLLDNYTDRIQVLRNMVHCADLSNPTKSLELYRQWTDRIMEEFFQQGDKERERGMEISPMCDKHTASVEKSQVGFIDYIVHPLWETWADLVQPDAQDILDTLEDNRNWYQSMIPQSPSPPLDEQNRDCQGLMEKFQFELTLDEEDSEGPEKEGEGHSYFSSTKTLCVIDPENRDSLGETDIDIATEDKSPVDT

On to `O=C(c1ccc2c(c1)N(c1ncc(-c3cccc(F)c3)cn1)CC21CC1)N1CCOCC1` [Compound 57, [1-[5-(3-Fluorophenyl)-pyrimidin-2-yl]-spiro[1,2-dihydro-indole-3,1′-cyclopropane]-6-yl]-morpholin-4-yl-methanone], for which the IC50 was less than 0.1 µM.

Regarding `CC(=O)N1CCNC(C(=O)c2ccc3c(c2)N(c2ncc(-c4ccccc4F)cn2)CC32CC2)C1` (centres unmarked) [Compound 85, 1-[5-[1-[5-(2-Fluorophenyl)-pyrimidin-2-yl]-spiro[1,2-dihydro-indole-3,1′-cyclopropane]-6-carbonyl]-piperazin-1-yl]-ethanone], the IC50 was less than 0.1 µM. As for `O=C(c1ccc2c(c1)N(c1ncc(-c3ccc(CO)s3)cn1)CC21CC1)N1CCOCC1` [Compound 149, [1-[5-[5-(Hydroxymethyl)-thiophen-2-yl]-pyrimidin-2-yl]-spiro[1,2-dihydro-indole-3,1′-cyclopropane]-6-yl]-morpholin-4-yl-methanone], the figure is less than 0.1 µM. As for `O=C(c1ccc2c(c1)N(c1ncc(-c3cc(F)cnc3F)cn1)CC21CC1)N1CCOCC1` [Compound 163, [1-[5-(2,5-Difluoro-pyridin-3-yl)-pyrimidin-2-yl]-spiro[1,2-dihydro-indole-3,1′-cyclopropane]-6-yl]-morpholin-4-yl-methanone], the figure is less than 0.1 µM; as for `O=C(c1ccc2c(c1)N(c1ncc(-c3ccccc3F)cn1)CC21CC1)N1CCSCC1` [Compound 93, [1-[5-(2-Fluorophenyl)-pyrimidin-2-yl]-spiro[1,2-dihydro-indole-3,1′-cyclopropane]-6-yl]thiomorpholin-4-yl-methanone], less than 0.1 µM; as for `O=C(c1ccc2c(c1)N(c1ncc(-c3cc(Cl)ccc3F)cn1)CC21CC1)N1CCOCC1` [Compound 58, [1-[5-(5-Chloro-2-fluoro-phenyl)-pyrimidin-2-yl]-spiro[1,2-dihydro-indole-3,1′-cyclopropane]-6-yl]-morpholin-4-yl-methanone], less than 0.1 µM. On to `CN(CC1OCCO1)C(=O)c1ccc2c(c1)N(c1ncc(-c3ccccc3F)cn1)CC21CC1` [Compound 87, N-([1,3]Dioxolan-2-yl-methyl)-1-[5-(2-fluorophenyl)-pyrimidin-2-yl]-N-methyl-spiro[1,2-dihydro-indole-3,1′-cyclopropane]-6-carboxylic acid amide], for which the IC50 lay within 0.1 to 1 µM. The same measure for `CN(CCO)C(=O)c1ccc2c(c1)N(c1ncc(-c3cc(F)cc(F)c3)cn1)CC21CC1` [Compound 126, 1-[5-(3,5-Difluoro-phenyl)-pyrimidin-2-yl]-N-(2-hydroxy-ethyl)-N-methyl-spiro[1,2-dihydro-indole-3,1′-cyclopropane]-6-carboxylic acid amide]: less than 0.1 µM. The same measure for `Cn1nc(C(F)(F)F)cc1-c1cnc(N2CC3(CC3)c3ccc(C(=O)N4CCOCC4)cc32)nc1` [Compound 134, [1-[5-[2-Methyl-5-(trifluoromethyl)-2H-pyrazol-3-yl]-pyrimidin-2-yl]-spiro[1,2-dihydro-indole-3,1′-cyclopropane]-6-yl]-morpholin-4-yl-methanone]: 0.1 to 1 µM.

Consider `NC(=O)c1ccc(F)c(-c2cnc(N3CC4(CC4)c4ccc(C(=O)N5CCOCC5)cc43)nc2)c1` [Compound 35, 4-Fluoro-3-[2-[6-(morpholine-4-carbonyl)-spiro[1,2-dihydro-indole-3,1′-cyclopropane]-1-yl]-pyrimidni-5-yl]-benzamide], for which the IC50 is less than 0.1 µM.

In the case of `O=C(c1ccc2c(c1)N(c1ncc(-c3ccccc3F)cn1)CC21CC1)N1CC(O)C1` [Compound 36, [1-[5-(2-Fluorophenyl)-pyrimidin-2-yl]-spiro[1,2-dihydro-indole-3,1′-cyclopropane]-6-yl]-(3-hydroxy-azetidin-1-yl)-methanone], the IC50 was 0.1 to 1 µM.

As to `Cc1ccccc1-c1cnc(N2CC3(CC3)c3ccc(C(=O)N4CCOCC4)cc32)nc1` [Compound 12, Morpholin-4-yl-[1-(5-o-tolyl-pyrimidin-2-yl)-spiro[1,2-dihydro-indole-3,1′-cyclopropane]-6-yl]-methanone], the IC50 was less than 0.1 µM. The same measure for `CN1CCN(C(=O)c2ccc3c(c2)N(c2ncc(-c4ccccc4F)cn2)CC32CC2)CC1=O` [Compound 38, 4-[1-[5-(2-Fluorophenyl)-pyrimidin-2-yl]spiro[1,2-dihydro-indole-3,1′-cyclopropane]-6-carbonyl]-1-methyl-piperazin-2-one]: less than 0.1 µM.

On to `CN(CCN)C(=O)c1ccc2c(c1)N(c1ncc(-c3ccccc3F)cn1)CC21CC1` [Compound 41, N-(2-Amino-ethyl)-1-[5-(2-fluorophenyl)-pyrimidin-2-yl]-N-methyl-spiro[1,2-dihydro-indole-3,1′-cyclopropane]-6-carboxylic acid amide], for which the IC50 was less than 0.1 µM. The same measure for `CN(CCO)C(=O)c1ccc2c(c1)N(c1ncc(-c3ccccc3F)cn1)CC21CC1` [Compound 95, 1-[5-(2-Fluorophenyl)-pyrimidin-2-yl]-N-(2-hydroxy-ethyl)-N-methyl-spiro[1,2-dihydro-indole-3,1′-cyclopropane]-6-carboxylic acid amide]: less than 0.1 µM; for `O=C1CN(C(=O)c2ccc3c(c2)N(c2ncc(-c4ccccn4)cn2)CC32CC2)CCN1` [Compound 180, 4-[1-(5-Pyridin-2-yl-pyrimidin-2-yl)-spiro[1,2-dihydro-indole-3,1′-cyclopropane]-6-carobnyl]-piperazin-2-one]: less than 0.1 µM.

As to `O=C(c1ccc2c(c1)N(c1ncc(-c3c(F)cccc3F)cn1)CC21CC1)N1CCOCC1` [Compound 27, [1-[5-(2,6-Difluoro-phenyl)-pyrimidin-2-yl]-spiro[1,2-dihydro-indole-3,1′-cyclopropane]-6-yl]-morpholin-4-yl-methanone], the IC50 is less than 0.1 µM. Consider `O=C(c1ccc2c(c1)N(c1ncc(-c3cc(OC(F)(F)F)ccc3F)cn1)CC21CC1)N1CCOCC1` [Compound 67, [1-[5-(2-Fluoro-5-(trifluoromethyloxy)-phenyl]-pyrimidin-2-yl]-spiro[1,2-dihydro-indole-3,1′-cyclopropane]-6-yl]-morpholin-4-yl-methanone], for which the half-inhibitory concentration (IC50) is 0.1 to 1 µM. As for `N[C@@H]1CCN(C(=O)c2ccc3c(c2)N(c2ncc(-c4cccc(F)c4F)cn2)CC32CC2)C1` [Compound 114, [(3R)-3-Amino-pyrrolidin-1-yl]-[1-[5-(2,3-difluoro-phenyl)-pyrimidin-2-yl]-spiro[1,2-dihydro-indole-3,1′-cyclopropane]-6-yl]-methanone], the figure is less than 0.1 µM; as for `C[C@@H]1CN(C(=O)c2ccc3c(c2)N(c2ncc(-c4ccccc4F)cn2)CC32CC2)C[C@H](C)O1` [Compound 104, [(2R,6S)-2,6-dimethyl-morpholin-4-yl]-[1-[5-(2-fluorophenyl)-pyrimidin-2-yl]-spiro[1,2-dihydro-indole-3,1′-cyclopropane]-6-yl]-methanone], less than 0.1 µM. As for `O=C(c1ccc2c(c1)N(c1ncc(-c3ccccc3F)cn1)CC21CC1)N1CCCC2(COC2)C1` [Compound 79, [1-[5-(2-Fluorophenyl)-pyrimidin-2-yl]-spiro[1,2-dihydro-indole-3,1′-cyclopropane]-6-yl]-(2-oxa-8-azaspiro[3.5]nonan-8-yl)-methanone], the figure is 1 to 10 µM; as for `O=C(c1ccc2c(c1)N(c1ncc(-c3c(F)cncc3F)cn1)CC21CC1)N1CCOCC1` [Compound 166, [1-[5-(3,5-Difluoro-pyridin-4-yl)-pyrimidin-2-yl]-spiro[1,2-dihydro-indole-3,1′-cyclopropane]-6-yl]-morpholin-4-yl-methanone], less than 0.1 µM. In the case of `O=C(c1cnc2c(c1)N(c1ncc(-c3ccccc3F)cn1)CC21CC1)N1CCOCC1` [Compound 169, [1-[5-(2-Fluorophenyl)-pyrimidin-2-yl]-spiro[1,2-dihydro-pyrrolo[3,2-b]pyridine-3,1′-cyclopropane]-6-yl]-morpholin-4-yl-methanone], the IC50 was 0.1 to 1 µM.

For `NC(=O)c1cccc(F)c1-c1cnc(N2CC3(CC3)c3ccc(C(=O)N4CCOCC4)cc32)nc1` [Compound 32, 3-Fluoro-2-[2-[6-(morpholine-4-carbonyl)-spiro[1,2-dihydro-indole-3,1′-cyclopropane]-1-yl]-pyrimidin-5-yl]-benzamide], the IC50 was 0.1 to 1 µM.

With `NC(=O)c1ccc(-c2cnc(N3CC4(CC4)c4ccc(C(=O)N5CCOCC5)cc43)nc2)cc1` [Compound 63, 4-[2-[6-(Morpholine-4-carbonyl)-spiro[1,2-dihydro-indole-3,1′-cyclopropane]-1-yl]-pyrimidin-5-yl]-benzamide], the IC50 is less than 0.1 µM. The same measure for `NC(=O)c1cccc(-c2cnc(N3CC4(CC4)c4ccc(C(=O)N5CC[C@@H](N)C5)cc43)nc2)c1` [Compound 118, 3-[2-[6-[(3R)-3-Amino-pyrrolidine-1-carbonyl]-spiro[1,2-dihydro-indole-3,1′-cyclopropane]-1-yl]-pyrimidin-5-yl]-benzamide]: less than 0.1 µM.

Usually IC50 stands for the concentration needed to halve the response being measured.
